Experimental data: patent US9845291B2, “Estrogen receptor modulators and uses thereof” (Genentech, Inc., priority 2014, dated 2017)
pEC50: −log10 of the molar value.

Target: estrogen receptor alpha (ESR1) (Homo sapiens, UniProt P03372)
Assay: cell-based
Details: for ER-alpha MCF7 HCS Sinf: MCF7 breast cancer cells, 4 hours, plateau of the maximal effect, DMSO and Fulvestrant define 0% and 100% changes in ESR1

Chain of estrogen receptor alpha (ESR1) (P03372 whole entry): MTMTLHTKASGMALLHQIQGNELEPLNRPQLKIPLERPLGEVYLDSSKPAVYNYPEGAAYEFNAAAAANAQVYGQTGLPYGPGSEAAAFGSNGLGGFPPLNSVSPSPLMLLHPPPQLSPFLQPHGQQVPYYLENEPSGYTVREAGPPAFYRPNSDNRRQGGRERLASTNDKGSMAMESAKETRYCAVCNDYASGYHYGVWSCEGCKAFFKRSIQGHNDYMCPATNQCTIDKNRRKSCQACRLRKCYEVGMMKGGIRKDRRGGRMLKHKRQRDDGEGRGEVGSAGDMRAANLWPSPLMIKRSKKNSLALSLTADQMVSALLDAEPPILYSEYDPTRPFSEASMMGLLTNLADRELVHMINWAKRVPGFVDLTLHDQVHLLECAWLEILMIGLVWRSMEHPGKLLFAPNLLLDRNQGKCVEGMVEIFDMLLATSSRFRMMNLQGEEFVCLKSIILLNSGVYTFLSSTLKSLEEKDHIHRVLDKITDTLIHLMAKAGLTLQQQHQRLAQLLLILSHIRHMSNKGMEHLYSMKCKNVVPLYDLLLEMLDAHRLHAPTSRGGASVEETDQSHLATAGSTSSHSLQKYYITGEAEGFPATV

Structure (SMILES)	pEC50	ER-alpha MCF7 HCS Sinf [%]
Cc1c(-c2ccc(O)cc2Cl)n(Cc2ccc(OC[C@H](C)N3CC[C@@H](CF)C3)cc2)c2ccc(O)cc12 [Example 56, 2-(2-chloro-4-hydroxyphenyl)-1-(4-((S)-2-((R)-3-(fluoromethyl)pyrrolidin-1-yl)propoxy)benzyl)-3-methyl-1H-indol-5-ol]	10.55	−95.6
CC/C(=C(\c1ccccc1)c1ccc(OCCN2CC[C@@H](CF)C2)cc1)c1ccccc1 [Example 19, (R,Z)-1-(2-(4-(1,2-Diphenylbut-1-en-yl)phenoxy)ethyl)-3-(fluoromethyl)pyrrolidine]	7.82	−75
CC/C(=C(\c1ccc(O)cc1)c1ccc(OC[C@H](C)N2CC[C@@H](CF)C2)cc1)c1ccccc1 [Example 24, 4-((Z)-1-(4-((S)-2-((R)-3-(Fluoromethyl)pyrrolidin-1-yl)propoxy)phenyl)-2-phenylbut-1-en-1-yl)phenol]	9.74	−58
O=C(c1ccc(OCCN2CC[C@@H](CF)C2)c(F)c1)c1c(-c2ccccc2Cl)noc1-c1ccc(O)cc1 [Example 73, [3-(2-chlorophenyl)-5-(4-hydroxyphenyl)isoxazol-4-yl]-[3-fluoro-4-[2-[(3R)-3-(fluoromethyl)pyrrolidin-1-yl]ethoxy]phenyl]methanone]	9.91	−97.6
O=C(c1ccc(OCCN2CC(CF)C2)cc1)c1c(-c2ccc(F)c(Cl)c2)sc2cc(O)ccc12 [Example 37, (2-(3-chloro-4-fluorophenyl)-6-hydroxybenzo[b]thiophen-3-yl)(4-(2-(3-(fluoromethyl)azetidin-1-yl)ethoxy)phenyl)methanone]	8.36	−97
Cc1cc(-c2sc3cc(O)ccc3c2C(=O)c2ccc(OCCN3CC(CF)C3)cc2)ccc1F [Example 36, (2-(4-fluoro-3-methylphenyl)-6-hydroxybenzo[b]thiophen-3-yl)(4-(2-(3-(fluoromethyl)azetidin-1-yl)ethoxy)phenyl)methanone]	8.60	−97
Oc1ccc(-c2sc3cc(O)ccc3c2Oc2ccc(OCCN3CC(CF)C3)cc2)cc1 [Example 11, 3-(4-(2-(3-(Fluoromethyl)azetidin-1-yl)ethoxy)phenoxy)-2-(4-hydroxyphenyl)benzo[b]thiophen-6-ol]	9.89	−94
Oc1ccc(-c2onc(-c3ccccc3Cl)c2-c2ccc(OCCN3CC[C@@H](CF)C3)cc2)cc1 [Example 15, (R)-4-(3-(2-Chlorophenyl)-4-(4-(2-(3-(fluoromethyl)pyrrolidin-1-yl)ethoxy)phenyl)isoxazol-5-yl)phenol]	8.64	−84
O=C(C1=C(c2ccc(O)cc2)CCc2cc(O)ccc21)c1ccc(OCCN2CC(CF)C2)cc1 [Example 32, (4-(2-(3-(Fluoromethyl)azetidin-1-yl)ethoxy)phenyl)(6-hydroxy-2-(4-hydroxyphenyl)-3,4-dihydronaphthalen-1-yl)methanone]	9.72	−101
